Experimental data published in patent publication US7078585B1, “Bacterial cell component-unresponsive model mouse” (Japan Science and Technology Agency, priority 1999, dated 2006).
Entries after “also recorded” stand apart in the source; their conditions may differ. Like-named read-outs stand apart in the source and are kept apart here.

Assays:
mice = test: IL-1-induced acute phase protein mRNA in liver and serum TNF-α/IL-6 after intravenous injection; format: in vivo, mouse; conditions: 1 μg intravenously, 2 hours
Experimental: MyD88 knockout mice of the present invention were intravenously injected with 1 μg of […] (Genzyme), and 2 hours later liver and sera were taken. Total RNA was extracted from the liver using Trizol reagent (GIBCO). This RNA (10 μg) was electrophoresed and transferred to a nylon membrane, then Northern blot analysis was conducted with ^32P-labelled cDNA for acute phase proteins such as serum amyloid A (SAA-I), serum amyloid P(SAP), and haptoglobin (HP).
Because IL-1 induces production of […], increase of TNF-α and IL-6 concentrations in serum taken from MyD88 knockout mice of the present invention and wild-type littermates by the above-stated method were measured by ELISA.

thymocytes = test: Thymocyte (T cell) proliferation with IL-1 costimulation ([3H]thymidine); format: cell-based, mouse; conditions: 100 U/ml with PHA, ConA or IL-2, 72 hours
From the text: Proliferation of T cells were examined by measuring [^3H] amount of [^3H] thymidine taken into the cells.

JNK = JNK activation (in vitro kinase assay); format: cell-based, mouse
Experimental: In addition to induction of NF-κB activation, IL-1 is also known to activate c-Jun N-terminal kinase (JNK). To test whether IL-18 induces JNK activation, an in vitro kinase assay was carried out using GST-c-Jun-fusion protein as a […]. […] IL-18-induced NF-κB and JNK activation was impaired in MyD88-deficient mice.
(§1) In order to examine whether a lipoprotein/lipopeptide activates intracellular signaling molecules with the results of example 16, peritoneal macrophages of the 4 kinds of mouse (1×10^6) were stimulated with 0.3 ng/ml of R-MALP-2 for 10 minutes, and in vitro kinase assay (Auto in FIG. 25A), Western blot analysis (WB in FIG. 25A), electrophoretic mobility shift assay (FIG. 25B) were conducted with anti-IRAK antibody as in example 12. In addition, in vitro kinase assay (Auto in FIG. 25C) and Western blot analysis (WB in FIG. 25C) with anti-JNK1 antibody were also conducted.

NF-κB = NF-κB DNA binding activity (electrophoretic / gel mobility shift assay); format: cell-based, mouse
Experimental: Splenic T cells cultured in the presence of IL-12 and anti-CD3 antibody for 4 days were starved for 3 hours and then stimulated with IL-18. Nuclei extracted from the stimulated cells were analyzed by a gel mobility shift assay using a specific probe containing NF-κB binding site.
NF-κB activation in response to LPS or PGN was also investigated. Macrophages of various kinds of mouse were stimulated with said LPS or PGN, then nuclear extracts from the macrophages were purified and incubated with a probe specific to DNA binding site of NF-κB, and visualized by electrophoretic mobility shift assay as described previously (Immunity 9, 143–150, 1998). The results are shown in FIGS. 21C and D. Arrows in FIGS. 21C and D indicate the position of a complex comprised of NF-κB and the specific probe, and arrowheads indicate the position of specific probe only.
as §1

splenic T cells = test: IFN-γ production by splenic cells / splenic T cells (ELISA); format: cell-based, mouse; conditions: 20 ng/ml, 24 hours
Experimental: Further, splenic B cells of MyD88 knockout mice of the present invention and their wild-type littermates were stimulated by 20 ng/ml of IL-18 and cultured for 24 hours in vitro, then production of IFN-γ in culture supernatants was measured by ELISA.
Splenic T cells of MyD88 knockout mice of the present invention and their wild-type littermates, which were purified to 95% or over, were cultured on anti-CD3 antibody (20 μg/ml)(PharMingen)-coated plates in the presence of 2 ng/ml IL-12. 4 days after the onset of culture, cells were harvested and washed with Hanks' balanced salt solution. The washed cells (2×10^5) were stimulated and cultured again on anti-CD3 antibody (20 μg/ml)-coated 96-well plates for 24 hours with 20 ng/ml of IL-18 or 2 ng/ml of IL-12. Concentration of IFNγ in culture supernatants was determined by ELISA and compared.
MyD88 knockout mice of the present invention and their wild-type littermates were intraperitoneally injected with 500 μg of heat-killed Propionibacterium acnes (P. acnes). […] Concentration of IFN-γ in culture supernatants was determined by ELISA. […] 14 days after injection, T cells were purified from spleen, then cultured and stimulated for 24 hours, as described above, subsequently concentration of IFN-γ was measured.

AP-1 = test: AP-1-dependent reporter activity after IL-18 treatment; format: cell-based; conditions: stimulation with IL-18
Experimental: Next, it was examined whether the dominant negative MyD88 mutant blocked IL-18-induced NF-κB activation as well. COS-7 cells were transiently transfected with MyD88 (amino acid 152–296) expression vector together with NF-κB-dependent luciferase reporter gene, and luciferase activity after IL-18 treatment was measured. Coexpression of MyD88 blocked IL-18-induced activation almost completely (see FIG. 7).
Because IL-18 activates AP-1-dependent gene information, whether MyD88 (amino acid 152–296) also acted as a dominant negative mutant of IL-18-induced AP-1 activation was investigated. Stimulation with IL-18-induced an approximately 3- to 4-fold increase in AP-1 activity, and this activation was blocked by coexpression of MyD88 (amino acid 152–296) (see FIG. 7).

YAC-1 targeting cells = test: NK lytic activity against 51Cr-labelled YAC-1 target cells; format: cell-based, mouse; conditions: 24 hours
Experimental: It has been well known that IL-18 enhances lytic activity of NK cells. Splenic […] from MyD88 knockout mice of the present invention and wild-type littermates were cultured in the presence or absence of 20 ng/ml of IL-18 (Hayashibara Biochemical Laboratories, Inc.) for 24 hours with ^51Cr-labelled mouse lymphoma cells (hereinafter “YAC-1”) targeting cells. 4 hours later, released ^51Cr in supernatants were counted by a gamma counter.

peritoneal macrophages [1] = test: TNF-α production by stimulated peritoneal macrophages (ELISA); format: cell-based, mouse
peritoneal macrophages [2] = test: IL-6 (ELISA) and NO2^− (Greiss method) production by peritoneal macrophages; format: cell-based, mouse; conditions: for production of IL-6: 24 hours; for production of NO2^−: in the presence of IFN-γ (30 unit/ml)
Experimental: Each of TLR2 knockout (TLR2−/−), TLR4 knockout (TLR4−/−) and wild-type (wild-type) mice were intraperitoneally injected with 2 ml of 4% thioglycollate medium (DIFCO). Three days later, peritoneal exudate cells were isolated from the peritoneal cavity of each mouse. These cells were cultured in RPMI1640 medium (GIBCO) supplemented with 10% fetal bovine serum (GIBCO) for 2 hours at 37° C. and washed with ice-cold Hank's buffered salt solution (HBSS; GIBCO) to remove nonadherent cells. Adherent cells were used as peritoneal macrophages for following experiments.
Synthetic lipid A, which was soluble in endotoxin-free water and containing 0.025% of triethylamine, was used as said synthetic lipid A. After the culture, production amounts of IL-6 (FIG. 17A), TNF-α (FIG. 17B) and NO2^− (FIG. 17C) in culture supernatants were measured. Production amount of IL-6 was measured by enzyme-linked immunosorbent assay (ELISA; ENDOGEN), and that of TNF-α was measured by ELSIA, according to manufacturer (Genzyme)'s instructions, and that of NO2^31 was measured by the Greiss method using NO2/NO3 Assay Kit (Dojindo Laboratories).

peritoneal macrophages [3] = test: I-A^b expression in peritoneal macrophages after intraperitoneal IFN-γ; format: in vivo, mouse; conditions: 5000 U intraperitoneally, three days after injection
From the text: Each of wild-type, MyD88- and TLR4-deficient mice were intraperitoneally injected with 5000 U of IFN-γ (Genzyme) or PBS. Three days after injection, peritoneal macrophages were collected and stained by combining I-A^b molecule on the surface of the macrophage membranes and FITC-conjugated anti-mouse I-A^b antibody, then analyzed by fluorescence-activated cell sorter Calibur using CELLQuest software (see FIG. 9C).

splenic B cells = test: MHC class II (I-A^b) expression on splenic B cells (flow cytometry); format: cell-based, mouse; conditions: 48 hours
Experimental: The expression of major histocompatibility complex (MHC) class II (I-A^b molecule) on the surface of splenic B cells in response to Re-595LPS was examined by flow cytometry. Splenic B cells (1×10^6) from each of the wild-type, MyD88- and TLR4-deficient mice were cultured for 48 hours in the presence of various concentrations (0, 0.01, 0.1, 1, 10 or 100 μg/ml) of LPS. After the culture, the cells were collected and then stained by combining I-A^b molecule on the surface of the cells and FITC-labelled antibody which is constructed by combining phycoerythrin (PE; PharMingen)-conjugated anti-B220 antibody or biotinylated anti-mouse I-A^b antibody (PharMingen) and fluorescein […] (FITC; PharMingen)-conjugated streptavidin. The stained cells were analyzed on fluorescence-activated cell sorter Calibur (FACS Calibur) using CELLQuest software (Becton Dickinson).
Next, Splenic B cells (1×10^6) from each of the wild-type, MyD88- and TLR4-deficient mice were cultured for 48 hours in the presence or absence of 100 U/ml of IL-4, and then stimulated. Subsequently, the cells were stained by combining I-A^b molecule on the surface of the splenic B cells and PE-conjugated anti-B220 antibody or FITC-conjugated anti-mouse I-A^b antibody. The cell proliferation was measured on fluorescence-activated cell sorter Calibur using CELLQuest software (see FIG. 9B).
In addition, the expression of major histocompatibility complex (MHC) class II (I-A^b) on the surface of B cells in response to Re-595 LPS was examined by flow cytometry. Splenic B cells (1×10^5) of each of wild-type, TLR2 knockout (2−/−) and TLR4 knockout (4−/−) mice were isolated and cultured for 48 hours in 96-well plates with various concentrations (0, 10^1, 10^2, 10^3, 10^4 or 10^5 ng/ml) of LPS or 100 U/ml of IL-4. […] The stained cells were analyzed on fluorescence-activated cell sorter Calibur (FACS Calibur) using CELLQuest software (Becton Dickinson) (FIG. 18B).

[4] = nuclear extracts of wild-type cells
[5] = peritoneal macrophages of TLR2 knockout mice
[6] = peritoneal macrophages of wild-type mice

## IL-1β: IL-1β (Genzyme), cytokine
mice; MyD88 knockout mice
  IL-6 concentration in serum: neither TNF-α nor IL-6 concentration increased
  TNF-α concentration in serum: neither TNF-α nor IL-6 concentration increased
  increase of mRNA expression of acute phase proteins (SAA-I, SAP, HP) in liver: not observed in MyD88 knockout mice
mice; wild-type littermates
  increase of mRNA expression of acute phase proteins (SAA-I, SAP, HP) in liver: increase of induction was observed in wild-type mice
mice; wild-type mice
  IL-6 concentration in serum: TNF-α and IL-6 concentrations increased
  TNF-α concentration in serum: TNF-α and IL-6 concentrations increased
thymocytes; MyD88 knockout mice
  proliferation of thymocytes: almost no enhanced proliferation
thymocytes; wild-type littermates
  proliferation of thymocytes: displayed enhanced proliferation

## IL-18: IL-18 (Hayashibara Biochemical Laboratories, Inc.), cytokine
JNK; MyD88-deficient cells
  JNK activation: IL-18-induced JNK activation was not observed
JNK; Th1-developing cells of wild-type mice
  JNK activation: induced JNK activation
NF-κB; [4]
  NF-κB DNA binding activity / NF-κB activation: detected in the nuclear extracts from wild-type cells
Splenic T cells; splenic cells / T cells of MyD88 knockout mice
  production of IFN-γ: production of IFN-γ was not observed; also recorded: cannot enhance IL-18-responsive production of IFNγ; also recorded: could not be enhanced
Splenic T cells; splenic cells / T cells of wild-type mice
  production of IFN-γ: production of IFN-γ was induced; also recorded: high level of IFN-γ production in response to IL-18 was observed
AP-1
  increase in AP-1 activity: 3- to 4 fold
YAC-1 targeting cells; splenic cells of MyD88 knockout mice
  lytic activity to YAC-1 targeting cells: not enhanced
YAC-1 targeting cells; splenic cells of wild-type mice
  lytic activity to YAC-1 targeting cells: dramatically enhanced

## TNF-α
JNK; MyD88-deficient cells
  JNK activation: normal activation of JNK was observed
NF-κB; nuclear extracts of MyD88-deficient cells
  NF-κB DNA binding activity / NF-κB activation: almost the same levels of NF-κB DNA binding activity
NF-κB; [4]
  NF-κB DNA binding activity / NF-κB activation: almost the same levels of NF-κB DNA binding activity

## lipid A
Peritoneal macrophages [1]
  production of TNF-α: produced IL-6 and TNF-α
Peritoneal macrophages [1]; peritoneal macrophages of TLR4-deficient mice, 24 hours
  production of TNF-α: produced neither IL-6 nor TNF-α
Peritoneal macrophages [2]; [5]
  production of IL-6: produced IL-6 and TNF-α
  production of NO2^−: production of NO2^− was confirmed
Peritoneal macrophages [2]; peritoneal macrophages of TLR4 knockout mice
  production of IL-6: produced neither IL-6 nor TNF-α
Peritoneal macrophages [2]; [6]
  production of IL-6: produced IL-6 and TNF-α
  production of NO2^−: production of NO2^− was confirmed

B1: IFN-γ: IFN-γ (Genzyme), cytokine (protein, UniProt P01579 24-161, looked up)
Interferon gamma: QDPYVKEAENLKKYFNAGHSDVADNGTLFLGILKNWKEESDRKIMQSQIVSFYFKLFKNFKDDQSIQKSVETIKEDMNVKFFNSNKKKRDDFEKLTNYSVTDLNVQRKAIHELIQVMAELSPAAKTGKRKRSQMLFRG
Peritoneal macrophages [3]
  expression of I-A^b molecule in peritoneal macrophages: comparative among wild-type, MyD88- and TLR4-deficient mice

B2: IL-4: IL-4 (Genzyme), cytokine (protein, UniProt P05112 25-153, looked up)
Interleukin-4: HKCDITLQEIIKTLNSLTEQKTLCTELTVTDIFAASKNTTEKETFCRAATVLRQFYSHHEKDTRCLGATAQQFHRHKQLIRFLKRLDRNLWGLAGLNSCPVKEANQSTLENFLERLKTIMREKYSKCSS
Splenic B cells; splenic B cells of MyD88-deficient mice
  expression of I-A^b molecule: showed same reaction as those of wild-type mice
Splenic B cells; splenic B cells of TLR2 knockout mice
  expression of I-A^b molecule: normal expression of I-A^b molecule
Splenic B cells; splenic B cells of TLR4-deficient mice
  expression of I-A^b molecule: showed same reaction as those of wild-type mice; also recorded: normal expression of I-A^b molecule
